Consider 15 compounds from PubChem BioAssay (NCI).

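Grown in 96-well plates, cells were treated for 48 hours with each compound at five concentrations. Insufficient inhibition: endpoint recorded as highest concentration tested. GI50 marks 50% less growth. TGI: concentration producing complete growth inhibition.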

Among the test systems are DU-145 prostate; K-562 leukemia; OVCAR-8 ovarian; UO-31 renal; MDA-N; NCI-H226 lung; MALME-3M melanoma; TK-10 renal; OVCAR-3 ovarian; SK-MEL-5 melanoma; COLO 205 colon; HL-60(TB) leukemia; 786-0 renal; SK-MEL-2 melanoma; UACC-62 melanoma; T-47D breast.
Holding throughout (test): growth of human tumour cells (NCI), 48 h

For the compound `Nc1nc(NNc2ccc(Cl)c(Cl)c2)cc(=O)[nH]1`, the TGI in the test with DU-145 prostate is above 100 µM; in the test on K-562 leukemia it was 54.7 µM; in the test with OVCAR-8 ovarian, above 100 µM; in the test on UO-31 renal it was above 100 µM; with MDA-N, above 100 µM; in the test with NCI-H226 lung, above 100 µM. The TGI is above 100 µM in the test with MALME-3M melanoma; above 100 µM in the test on TK-10 renal; 59.5 µM with OVCAR-3 ovarian; above 100 µM in the test on SK-MEL-5 melanoma; 61.1 µM in the test with COLO 205 colon; 64.4 µM with HL-60(TB) leukemia. For the same compound, in the test with 786-0 renal, the TGI stood at 67.5 µM.
For `O=C(N/N=C1/C(=O)c2c3ccccc3cc3cccc1c23)c1cccc(Cl)c1`, the TGI in the test with DU-145 prostate, in the test on K-562 leukemia, with OVCAR-8 ovarian, with MDA-N, in the test with NCI-H226 lung and in the test on SK-MEL-2 melanoma was above 100 µM in each case. In addition, the TGI with UACC-62 melanoma, with OVCAR-3 ovarian, with SK-MEL-5 melanoma, with COLO 205 colon, in the test on HL-60(TB) leukemia and with 786-0 renal was above 100 µM in each case.
On to `Oc1c(-c2ccccc2)sc2ccccc12`, for which the TGI in the test on DU-145 prostate is 59.5 µM; in the test on K-562 leukemia, 67.5 µM; in the test with OVCAR-8 ovarian, above 100 µM; with UO-31 renal, 84.6 µM; in the test with NCI-H226 lung, 64.4 µM; with MALME-3M melanoma it was 59.6 µM. Also, the TGI in the test on SK-MEL-2 melanoma was 41 µM; with TK-10 renal it was above 100 µM; in the test on UACC-62 melanoma it was above 100 µM; with OVCAR-3 ovarian, 36.2 µM; with T-47D breast, 54.4 µM; in the test on SK-MEL-5 melanoma, 54.5 µM. The results for the TGI in the test on COLO 205 colon, in the test with HL-60(TB) leukemia and with 786-0 renal were 28.2 µM, 45.4 µM and 59 µM, respectively.
For `Cc1ccc(/C(=C/C=C(C#N)C#N)Sc2cc(Cl)ccc2Cl)cc1`, the TGI with DU-145 prostate was 13.9 µM; in the test on UO-31 renal, above 100 µM; in the test on NCI-H226 lung, 13.6 µM; in the test with MALME-3M melanoma, 35.5 µM; with SK-MEL-2 melanoma it was above 100 µM; in the test on TK-10 renal it was 18.7 µM. Moreover, the TGI in the test with UACC-62 melanoma came out at 15.3 µM; in the test on OVCAR-3 ovarian it was 11.8 µM; in the test with T-47D breast, 67.5 µM; in the test with SK-MEL-5 melanoma it was 26.4 µM; with COLO 205 colon it was 20.4 µM; in the test with 786-0 renal it was 5.01 µM.
For `CC(=O)[O-].CC(=O)[O-].[NH2-].[Pt+2].c1ccncc1`, the GI50 with DU-145 prostate was 4.62 µM; in the test on T-47D breast, 59.4 µM. Further, the TGI in the test with DU-145 prostate was 51.9 µM; in the test with K-562 leukemia, 71.6 µM; with OVCAR-8 ovarian, 40.1 µM; in the test on UO-31 renal it was above 100 µM; in the test with NCI-H226 lung, above 100 µM; with MALME-3M melanoma, above 100 µM. Moreover, the TGI in the test on SK-MEL-2 melanoma, in the test with TK-10 renal, with UACC-62 melanoma, in the test on OVCAR-3 ovarian, with T-47D breast and with SK-MEL-5 melanoma was above 100 µM throughout. Moreover, the figures for the TGI in the test with COLO 205 colon, with HL-60(TB) leukemia and with 786-0 renal were above 100 µM, 43.7 µM and above 100 µM, respectively.
In the case of `CN(C)CC(CO)(CN(C)C)CN(C)C`, the TGI in the test with DU-145 prostate, in the test on K-562 leukemia, with OVCAR-8 ovarian, with UO-31 renal, in the test on MDA-N and in the test on NCI-H226 lung was above 100 µM throughout. Moreover, the TGI in the test with MALME-3M melanoma, in the test with TK-10 renal, in the test with UACC-62 melanoma, with OVCAR-3 ovarian, with SK-MEL-5 melanoma and with COLO 205 colon was above 100 µM each time. Besides, the TGI with HL-60(TB) leukemia and in the test with 786-0 renal was above 100 µM each time.
Regarding `CCOC(=O)c1cc(C2CCN(Cc3ccccc3)C2=O)c(C(=O)C(=[N+]=[N-])C(C)=O)[nH]1` (centres undefined), the TGI in the test on DU-145 prostate, with K-562 leukemia, with OVCAR-8 ovarian, in the test with UO-31 renal, with NCI-H226 lung and with MALME-3M melanoma was above 100 µM throughout. For the same compound, the TGI in the test with SK-MEL-2 melanoma, in the test on UACC-62 melanoma, in the test with OVCAR-3 ovarian, in the test on T-47D breast, in the test on SK-MEL-5 melanoma and in the test on COLO 205 colon was above 100 µM throughout. In addition, the TGI in the test with HL-60(TB) leukemia and with 786-0 renal was above 100 µM in each case.
On to `CC(C)OP(=O)(OC(C)C)/C(=N/N)NNc1ccc([N+](=O)[O-])cc1`, for which the TGI in the test with K-562 leukemia, with OVCAR-8 ovarian, in the test on UO-31 renal, with NCI-H226 lung, with MALME-3M melanoma and with SK-MEL-2 melanoma was above 100 µM each time. The TGI in the test on TK-10 renal, with UACC-62 melanoma, in the test with OVCAR-3 ovarian, in the test with SK-MEL-5 melanoma, in the test on COLO 205 colon and in the test on HL-60(TB) leukemia was above 100 µM each time. In addition, in the test on 786-0 renal, the TGI was above 100 µM.
In the case of `COc1ccc2c(c1)nc1n2C(c2c(F)cccc2Cl)SC1` (centres undefined), the TGI is above 29.3 µM in the test on DU-145 prostate; above 100 µM in the test on K-562 leukemia; 51 µM in the test on OVCAR-8 ovarian; above 100 µM in the test on UO-31 renal; 43.4 µM with NCI-H226 lung; 5.43 µM with MALME-3M melanoma. For the same compound, the TGI in the test on SK-MEL-2 melanoma is above 27.7 µM; with TK-10 renal, above 76.8 µM; in the test with UACC-62 melanoma, above 100 µM; in the test with OVCAR-3 ovarian, above 26.1 µM; in the test with T-47D breast, above 52.5 µM; in the test with SK-MEL-5 melanoma it was above 43.2 µM. Also, the results for the TGI in the test with COLO 205 colon and with 786-0 renal were above 54.9 µM and above 41.1 µM, respectively.
`CSc1ccc2c(cc1=O)C(NC(=O)c1ccc(OC(C)=O)cc1)CCc1cc(O)c(O)c(O)c1-2` (centres undefined): the TGI with K-562 leukemia is 7.53 µM; in the test on OVCAR-8 ovarian it was 60.2 µM; with UO-31 renal, above 100 µM; with NCI-H226 lung, 50.8 µM; with MALME-3M melanoma, above 100 µM; in the test with SK-MEL-2 melanoma, 49.7 µM. In addition, the TGI in the test with TK-10 renal was above 100 µM; with UACC-62 melanoma, 36.3 µM; in the test on OVCAR-3 ovarian, 44.5 µM; with SK-MEL-5 melanoma it was 31.5 µM; in the test on COLO 205 colon, 30.8 µM; in the test on HL-60(TB) leukemia, 21.9 µM. The compound also had a TGI in the test on 786-0 renal above 100 µM.
As to `COc1cc(C(C)c2cc3c(cc2OCCCCOc2cc4c(cc2C(C)c2cc(OC)c(OC)c(OC)c2)OCO4)OCO3)cc(OC)c1OC` (centres undefined), the TGI was above 100 µM with K-562 leukemia; above 100 µM with OVCAR-8 ovarian; above 100 µM in the test with UO-31 renal; 80.6 µM in the test on NCI-H226 lung; above 100 µM in the test with MALME-3M melanoma; above 100 µM with SK-MEL-2 melanoma. In addition, the TGI with TK-10 renal is above 100 µM; with UACC-62 melanoma, above 100 µM; with OVCAR-3 ovarian, 58.2 µM; with SK-MEL-5 melanoma, above 100 µM; in the test on COLO 205 colon, above 100 µM; in the test with HL-60(TB) leukemia, above 100 µM. This compound gave a TGI in the test with 786-0 renal above 100 µM.
On to `CCCCNC(=O)Nc1c(C(N)=O)c2n(c1C(=O)OCC)CCCCC2`, for which the TGI in the test with DU-145 prostate, in the test with K-562 leukemia, in the test with OVCAR-8 ovarian, in the test on UO-31 renal, in the test on NCI-H226 lung and in the test on SK-MEL-2 melanoma was above 100 µM each time. The TGI with TK-10 renal, with UACC-62 melanoma, with T-47D breast, with SK-MEL-5 melanoma, with COLO 205 colon and with HL-60(TB) leukemia was above 100 µM throughout. The same compound yielded a TGI with 786-0 renal above 100 µM.
With `COc1ccc(C(C2C(=O)N(C)C(=O)N(C)C2=O)C(F)(F)C(=O)N(C)C)cc1` (centres undefined), the TGI in the test on DU-145 prostate, in the test with OVCAR-8 ovarian, in the test with UO-31 renal, with NCI-H226 lung, in the test with MALME-3M melanoma and with SK-MEL-2 melanoma was above 100 µM throughout. For the same compound, the TGI with TK-10 renal, with UACC-62 melanoma, with OVCAR-3 ovarian, in the test on T-47D breast, with SK-MEL-5 melanoma and in the test with COLO 205 colon was above 100 µM throughout. In addition, the TGI with 786-0 renal is above 100 µM.
In the case of `CCN1CC2=C(NC(=S)NC2c2cc(OC)c(OC)c(OC)c2)/C(=C/c2cc(OC)c(OC)c(OC)c2)C1` (centres undefined), the TGI was above 100 µM with DU-145 prostate; 66.3 µM with K-562 leukemia; 61.6 µM in the test on OVCAR-8 ovarian; 67.7 µM in the test with UO-31 renal; above 100 µM with MDA-N; above 100 µM with NCI-H226 lung. Further, the TGI in the test on MALME-3M melanoma is 31.5 µM; in the test with SK-MEL-2 melanoma, above 100 µM; in the test on TK-10 renal, above 100 µM; in the test on UACC-62 melanoma it was above 100 µM; with OVCAR-3 ovarian, above 100 µM; in the test on SK-MEL-5 melanoma, 40.1 µM. In addition, the TGI is 52.9 µM in the test with COLO 205 colon, 56.7 µM with HL-60(TB) leukemia and above 100 µM in the test on 786-0 renal.
In the case of `Cc1nc2ccccc2c(=O)n1NC(=O)c1ccccc1O`, the TGI in the test with DU-145 prostate, with K-562 leukemia, with OVCAR-8 ovarian, in the test on UO-31 renal, in the test with MDA-N and with NCI-H226 lung was above 100 µM throughout. Moreover, the TGI in the test on TK-10 renal, with UACC-62 melanoma, in the test on OVCAR-3 ovarian, with SK-MEL-5 melanoma, with COLO 205 colon and in the test on HL-60(TB) leukemia was above 100 µM in each case. The TGI in the test on 786-0 renal was above 100 µM.
